Source: PubChem BioAssay (NCI)
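How tested: cells in 96-well plates exposed to compound for 48 hours at five concentrations. GI50 = concentration required for 50% inhibition of growth. TGI is the concentration that stops growth completely.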

Assays:
Test in all cases: DTP human tumour cell line panel, 48 h
[1] = system: MOLT-4 leukemia
[2] = system: K-562 leukemia
[3] = system: HT29 colon
[4] = system: IGROV1 ovarian
[5] = system: SF-295 CNS
[6] = system: SN12C renal
[7] = system: MALME-3M melanoma
[8] = system: OVCAR-4 ovarian
[9] = system: HL-60(TB) leukemia
[10] = system: SNB-75 CNS
[11] = system: SK-OV-3 ovarian
[12] = system: 786-0 renal

Row | Compound | TGI [1] [µM] | TGI [2] [µM] | TGI [3] [µM] | TGI [4] [µM] | TGI [5] [µM] | TGI [6] [µM] | TGI [7] [µM] | TGI [8] [µM] | TGI [9] [µM] | TGI [10] [µM] | TGI [11] [µM] | TGI [12] [µM] | GI50 [1] [µM] | GI50 [2] [µM] | GI50 [3] [µM] | GI50 [4] [µM] | GI50 [7] [µM] | GI50 [9] [µM] | GI50 [10] [µM] | GI50 [11] [µM]
1 | O=C1OC2CC=CC1C2 (configuration not stated) | > 100 | > 100 | > 100 | > 100 | > 100 | > 100 | > 100 | > 100 | > 100 | > 100 | > 100 |  |  |  |  |  |  |  |  | 
2 | COc1ccc(NC(=S)N/N=C(\C)c2nc3ncccc3[nH]2)cc1 | 43.9 | > 100 | > 100 | 53.6 | > 100 | > 100 | > 100 | > 100 | 65.8 | 70.6 | > 100 | > 100 |  |  |  |  |  |  |  | 
3 | O=C(Oc1ccc(Cl)cc1[N+](=O)[O-])c1ccccc1 | > 100 | > 100 | > 100 | > 100 | > 100 | > 100 | > 100 | > 100 | > 100 | > 100 | > 100 |  |  |  |  |  |  |  |  | 
4 | SC1CCCN(Cc2ccccc2)C1 (configuration not stated) | 78.2 | 60.6 | 45.8 | > 100 | > 100 | > 100 |  | > 100 | > 100 | > 100 | > 100 | > 100 |  |  |  |  |  |  |  | 
5 | CCCC(=O)O.CCCC(=O)O.CCCC(=O)O.CCCC(=O)O.[Rh].[Rh] | 0.141 | 0.273 | 0.126 | 0.73 |  |  | 0.102 |  | 0.351 | 2.62 | 0.829 |  | 0.0315 | 0.026 | 0.0334 | 0.189 | 0.0309 | 0.0448 | 0.423 | 0.278
6 | COc1cc(/C=C/C(=O)CC(=O)/C=C/c2ccc(O)c(OC)c2)ccc1O | 18 | > 55.6 | 32.4 | 26.7 | 20.7 | 25.1 | 27.4 | 36.6 | 25 | 18 | 21 | 10.8 |  |  |  |  |  |  |  | 
7 | O=C(COc1ccc(Cl)c(Cl)c1)N(Cc1ccccc1)Cc1ccc[n+](Cc2ccc(Cl)cc2S(=O)(=O)F)c1 | 54.8 | > 100 | > 100 | > 100 | > 100 | > 100 | 54.2 | > 100 | 94.5 | > 100 | > 100 | > 100 |  |  |  |  |  |  |  | 
8 | COc1ccc(OC)c(CC(C)N)c1 (configuration not stated) | > 100 | > 100 | > 100 | > 100 | > 100 | > 100 | > 100 | > 100 |  | > 100 | > 100 | > 100 |  |  |  |  |  |  |  | 
9 | CC(C)(C)OC(=O)NC1CCC(C(C)(C)C)CC1 (configuration not stated) | 67.2 | > 100 | > 87.3 | > 100 | > 55.3 | > 100 | > 93.8 | > 100 | 36.1 | > 100 | > 100 |  |  |  |  |  |  |  |  | 
10 | COc1cc(S(=O)(=O)Nc2nc(-c3ccc(N4C(=O)/C(=C/c5ccccc5[N+](=O)[O-])N=C4c4ccccc4)cc3)cs2)ccc1Cl | > 100 | > 100 | > 100 | > 100 | > 100 | > 100 | > 100 | > 100 | > 100 | > 100 | > 100 | > 100 |  |  |  |  |  |  |  | 
11 | Cl/C(=C\C=Nc1ccc(I)cc1)c1ccc2ccccc2c1 | 13.6 | 31.8 | > 100 | > 55.7 | 51.3 | 40.6 | 42 | 46.5 | 44.4 | > 79.9 | 74.4 | 40.7 |  |  |  |  |  |  |  | 
12 | C=CCNS(=O)(=O)c1ncnc2nc[nH]c12 | 41.2 | > 100 | > 100 | > 100 | > 100 | > 100 | > 100 | > 100 |  | > 100 | > 100 | > 100 |  |  |  |  |  |  |  | 
13 | C=C1C(=O)OC2CC1CCC1(C)OC1CCC(C)=CCCC2(C)O (configuration not stated) | 9.2 | 13.7 | 10.7 | 15.8 | 33.8 | 11.6 | 12.2 | 11.9 | 2.62 | 19.5 | 36.7 |  |  |  |  |  |  |  |  | 
14 | c1ccc(C[N+]23CN4CN(CN(C4)C2)C3)cc1 | 43.9 | 86.2 | > 100 | > 100 | > 100 | > 100 | > 100 | > 100 | 57.2 | > 100 | > 100 | 46.8 |  |  |  |  |  |  |  | 
15 | O=C1OCc2cc3cc4c(cc3c(-c3ccc5c(c3)OCO5)c21)OCO4 (tested in a mixture with another compound) | 72.5 | > 100 | > 100 | 66.7 | 31.4 | > 100 | > 100 | > 100 | > 100 |  | 48.1 |  |  |  |  |  |  |  |  | 
16 | O=C1CCCC2C3CC(CN12)C1CCCCN1C3 (configuration not stated) | > 100 |  | > 100 | > 100 | > 100 | > 100 | > 100 | > 100 | > 100 |  | > 100 | > 100 |  |  |  |  |  |  |  | 
17 | CC(C)(C)c1ccc(/C=N/NC(=O)CSCC(=O)N/N=C/c2ccc(C(C)(C)C)cc2)cc1 | 5.02 | 6.7 | 3.87 | 10.4 |  | 4.82 | 24.8 | > 100 | 5.21 | 20.1 | 19.4 | 4.4 |  |  |  |  |  |  |  | 
18 | O=C(/C=C/c1ccccc1)N1CCCCC1 | > 100 | > 100 | > 100 | > 100 | > 100 | > 100 |  | > 100 | > 100 | 89.2 | > 100 | > 100 |  |  |  |  |  |  |  | 
19 | COc1c(OC/C=C(\C)CCC=C(C)C)ccc2ccc(=O)oc12 | > 100 | > 100 | > 100 | > 100 | > 100 | > 100 |  | > 100 | > 100 | > 100 | > 100 | > 100 |  |  |  |  |  |  |  | 
20 | CC(=O)NNC(=O)C1CCCCN1 (configuration not stated) | > 100 | > 100 | > 100 | > 100 | > 100 | > 100 | > 100 | > 100 | > 100 |  | > 100 | > 100 |  |  |  |  |  |  |  | 
21 | CC[C@]12C=CCN3CC[C@@]4(c5cc(Br)c(OC)cc5N(C)[C@H]4[C@@](O)(C(=O)N[C@@H](Cc4ccc(O)cc4)C(=O)OC)[C@@H]1O)[C@@H]32 | 62.3 | > 100 | 30 | 73.3 | 38.7 | 37.9 | 29.1 | 40 | 57.8 |  | > 100 | > 100 |  |  |  |  |  |  |  | 
22 | Br/C(=N\Nc1nn[nH]n1)c1ccncc1 | > 100 | > 100 | > 100 | > 100 | > 100 | > 100 | > 100 | > 100 | > 100 | > 100 | > 100 | > 100 |  |  |  |  |  |  |  | 
